The values that follow come from ChEMBL document CHEMBL3286290, “In vitro screening of pentamidine analogs against bacterial and fungal strains” (Bioorg Med Chem Lett, 2014).

The structures appear in SMILES notation. ≈ marks a conversion by molar mass, not a printed value.

Type in all cases: functional
One experiment concerns Bacillus subtilis. Nature of the experiment: Antibacterial activity against Bacillus subtilis ATCC 6633 assessed as growth inhibition by M7-A6 method.
Experiment [1] deals with Pseudomonas aeruginosa. Put plainly: Antibacterial activity against Pseudomonas aeruginosa ATCC 15442 assessed as growth inhibition by M7-A6 method.
Experiment [2] relates to Staphylococcus aureus. Nature of the experiment: Antibacterial activity against Staphylococcus aureus ATCC 6538 assessed as growth inhibition by M7-A6 method.
In the next experiment the test system is Aspergillus brasiliensis. Nature of the experiment: Antifungal activity against Aspergillus brasiliensis ATCC 16404 assessed as growth inhibition by M7-A6 method.
Experiment [3] has as its system Escherichia coli. Nature of the experiment: Antibacterial activity against Escherichia coli ATCC 8739 assessed as growth inhibition by M7-A6 method.
For experiment [4], the system named is Pseudomonas aeruginosa. Put plainly: Antibacterial activity against Pseudomonas aeruginosa ATCC 9027 assessed as growth inhibition by M7-A6 method.
A further experiment relates to Candida parapsilosis. Nature of the experiment: Antifungal activity against Candida parapsilosis ATCC 22019 assessed as growth inhibition by M7-A6 method. The following applies: Lodderomyces parapsilosis.
Experiment [5] deals with Micrococcus luteus. Nature of the experiment: Antibacterial activity against Micrococcus luteus ATCC 9341 assessed as growth inhibition by M7-A6 method.
A further experiment concerns Bacillus cereus. Put plainly: Antibacterial activity against Bacillus cereus ATCC 11778 assessed as growth inhibition by M7-A6 method.
Experiment [6] has as its system Micrococcus luteus. Put plainly: Antibacterial activity against Micrococcus luteus ATCC 10240 assessed as growth inhibition by M7-A6 method.
Experiment [7] deals with Escherichia coli. Nature of the experiment: Antibacterial activity against Escherichia coli ATCC 10536 assessed as growth inhibition by M7-A6 method.
In the next experiment the test system is Saccharomyces cerevisiae. Nature of the experiment: Antifungal activity against Saccharomyces cerevisiae ATCC 9763 assessed as growth inhibition by M7-A6 method.
In experiment [8] the test system is Staphylococcus aureus. Nature of the experiment: Antibacterial activity against Staphylococcus aureus ATCC 6538P assessed as growth inhibition by M7-A6 method.
For experiment [9], the system named is Candida albicans. Put plainly: Antifungal activity against Candida albicans ATCC 10231 assessed as growth inhibition by M7-A6 method.
The test system of experiment [10] is Candida albicans. Put plainly: Antifungal activity against Candida albicans ATCC 2091 assessed as growth inhibition by M7-A6 method.
Experiment [11] can be described thus: Antifungal activity against Zygosaccharomyces rouxii ATCC 28253 assessed as growth inhibition by M7-A6 method.

What is called MIC is the lowest concentration that inhibits growth of the organism. Take `N=C(N)c1ccc(OCCOCCOc2ccc(C(=N)N)cc2)cc1`: the minimal inhibitory concentration (MIC) with Bacillus subtilis is 550 µM (≈ 188 µg/mL); in the experiment on Pseudomonas aeruginosa [1], 11100 µM (≈ 3790 µg/mL); with Staphylococcus aureus [2], 550 µM (≈ 188 µg/mL); in the experiment on Aspergillus brasiliensis, more than 22200 µM; in the experiment on Escherichia coli [3], 550 µM (≈ 188 µg/mL); in the experiment with Pseudomonas aeruginosa [4], 11100 µM (≈ 3790 µg/mL). Further, the minimum inhibitory concentration (MIC) with Candida parapsilosis amounted to 66 µM (≈ 22.6 µg/mL); in the experiment with Micrococcus luteus [5], 4.4 µM (≈ 1.51 µg/mL); in the experiment on Bacillus cereus it was 550 µM (≈ 188 µg/mL); in the experiment on Micrococcus luteus [6], 11 µM (≈ 3.77 µg/mL); in the experiment with Escherichia coli [7], 550 µM (≈ 188 µg/mL); in the experiment on Saccharomyces cerevisiae it was 11100 µM (≈ 3790 µg/mL). Besides, the minimum inhibitory concentration (MIC) was 550 µM (≈ 188 µg/mL) with Staphylococcus aureus [8], more than 22200 µM in the experiment on Candida albicans [9] and more than 22200 µM in the experiment with Candida albicans [10].
With `COc1cc(C(=N)N)cc(OC)c1OCCCCCOc1c(OC)cc(C(=N)N)cc1OC`, the minimal inhibitory concentration (MIC) in the experiment with Bacillus subtilis is 89 µM (≈ 41 µg/mL); in the experiment with Pseudomonas aeruginosa [1], 4460 µM (≈ 2050 µg/mL); with Staphylococcus aureus [2], 54 µM (≈ 24.9 µg/mL); with Aspergillus brasiliensis, 8920 µM (≈ 4110 µg/mL); with Escherichia coli [3], 220 µM (≈ 101 µg/mL); with Pseudomonas aeruginosa [4], 1780 µM (≈ 820 µg/mL). Further, the MIC was 890 µM (≈ 410 µg/mL) in the experiment with Candida parapsilosis; 3.5 µM (≈ 1.61 µg/mL) with Micrococcus luteus [5]; 110 µM (≈ 50.7 µg/mL) in experiment [11]; 110 µM (≈ 50.7 µg/mL) with Bacillus cereus; 18 µM (≈ 8.29 µg/mL) in the experiment on Micrococcus luteus [6]; 220 µM (≈ 101 µg/mL) with Escherichia coli [7]. The MIC in the experiment on Saccharomyces cerevisiae was 4460 µM (≈ 2050 µg/mL); with Staphylococcus aureus [8], 54 µM (≈ 24.9 µg/mL); in the experiment with Candida albicans [9], 890 µM (≈ 410 µg/mL); in the experiment with Candida albicans [10], 1780 µM (≈ 820 µg/mL).
In the case of `COc1cc(C(=N)N)ccc1OCCN(CCOc1ccc(C(=N)N)cc1OC)S(=O)(=O)c1ccc(NC(C)=O)cc1`, the minimal inhibitory concentration (MIC) with Bacillus subtilis is 720 µM (≈ 431 µg/mL); in the experiment on Pseudomonas aeruginosa [1], 7160 µM (≈ 4290 µg/mL); in the experiment with Staphylococcus aureus [2], 140 µM (≈ 83.8 µg/mL); with Aspergillus brasiliensis, 7160 µM (≈ 4290 µg/mL); in the experiment on Escherichia coli [3] it was 3580 µM (≈ 2140 µg/mL); in the experiment on Pseudomonas aeruginosa [4], 7160 µM (≈ 4290 µg/mL). The MIC with Candida parapsilosis was determined as 360 µM (≈ 216 µg/mL); in the experiment on Micrococcus luteus [5] it was 72 µM (≈ 43.1 µg/mL); in [11] it was 1430 µM (≈ 856 µg/mL); with Bacillus cereus, 72 µM (≈ 43.1 µg/mL); with Micrococcus luteus [6], 89 µM (≈ 53.3 µg/mL); in the experiment with Escherichia coli [7], 3580 µM (≈ 2140 µg/mL). Besides, the MIC was found to be 1430 µM (≈ 856 µg/mL) in the experiment on Saccharomyces cerevisiae, 360 µM (≈ 216 µg/mL) with Staphylococcus aureus [8], 180 µM (≈ 108 µg/mL) in the experiment with Candida albicans [9] and 1430 µM (≈ 856 µg/mL) in the experiment on Candida albicans [10].
Regarding `CN(CCOc1ccc(C(=N)N)cc1)CCOc1ccc(C(=N)N)cc1`, the MIC with Bacillus subtilis is 2110 µM (≈ 750 µg/mL); in the experiment with Pseudomonas aeruginosa [1] it was more than 21100 µM; with Staphylococcus aureus [2], 21100 µM (≈ 7500 µg/mL); in the experiment with Escherichia coli [3] it was 21100 µM (≈ 7500 µg/mL); in the experiment with Pseudomonas aeruginosa [4], more than 21100 µM; with Candida parapsilosis it was 10600 µM (≈ 3770 µg/mL). For the same compound, the MIC with Micrococcus luteus [5] was 1060 µM (≈ 377 µg/mL); in the experiment with Bacillus cereus it was 1060 µM (≈ 377 µg/mL); in the experiment with Micrococcus luteus [6], 1060 µM (≈ 377 µg/mL); in the experiment with Escherichia coli [7], 21100 µM (≈ 7500 µg/mL); in the experiment on Staphylococcus aureus [8], 10600 µM (≈ 3770 µg/mL); in the experiment on Candida albicans [9], more than 21100 µM. Also, the MIC in the experiment with Candida albicans [10] was more than 21100 µM.
As to `COc1cc(C(=N)N)cc(OC)c1OCCN(C)CCOc1c(OC)cc(C(=N)N)cc1OC`, the MIC is 1520 µM (≈ 723 µg/mL) in the experiment on Bacillus subtilis; more than 15200 µM with Pseudomonas aeruginosa [1]; 7610 µM (≈ 3620 µg/mL) in the experiment with Staphylococcus aureus [2]; 7610 µM (≈ 3620 µg/mL) with Escherichia coli [3]; more than 15200 µM in the experiment on Pseudomonas aeruginosa [4]; more than 15200 µM with Candida parapsilosis. The minimal inhibitory concentration (MIC) in the experiment with Micrococcus luteus [5] is 760 µM (≈ 361 µg/mL); in the experiment on Bacillus cereus, 7610 µM (≈ 3620 µg/mL); in the experiment on Micrococcus luteus [6] it was 1520 µM (≈ 723 µg/mL); with Escherichia coli [7], 15200 µM (≈ 7240 µg/mL); in the experiment on Staphylococcus aureus [8], 7610 µM (≈ 3620 µg/mL); in the experiment on Candida albicans [9] it was more than 15200 µM. Besides, in the experiment with Candida albicans [10], the MIC is more than 15200 µM.
For `N=C(N)c1ccc(NCCOCCNc2ccc(C(=N)N)cc2)cc1`, the MIC in the experiment with Bacillus subtilis is 590 µM (≈ 201 µg/mL); with Pseudomonas aeruginosa [1], more than 23700 µM; in the experiment with Staphylococcus aureus [2] it was 590 µM (≈ 201 µg/mL); in the experiment on Aspergillus brasiliensis it was 5920 µM (≈ 2020 µg/mL); with Escherichia coli [3] it was 2370 µM (≈ 807 µg/mL); in the experiment with Pseudomonas aeruginosa [4], more than 23700 µM. The minimal inhibitory concentration (MIC) in the experiment on Candida parapsilosis came out at 71 µM (≈ 24.2 µg/mL); in the experiment on Micrococcus luteus [5], 24 µM (≈ 8.17 µg/mL); in experiment [11] it was 5920 µM (≈ 2020 µg/mL); with Bacillus cereus it was 590 µM (≈ 201 µg/mL); in the experiment with Micrococcus luteus [6], 71 µM (≈ 24.2 µg/mL); in the experiment on Escherichia coli [7], 11800 µM (≈ 4030 µg/mL). Moreover, the MIC in the experiment on Saccharomyces cerevisiae amounted to 11800 µM (≈ 4030 µg/mL); in the experiment on Staphylococcus aureus [8] it was 590 µM (≈ 201 µg/mL); with Candida albicans [9], 5920 µM (≈ 2020 µg/mL); in the experiment with Candida albicans [10], 5920 µM (≈ 2020 µg/mL).
As for `COc1cc(C(=N)N)cc(OC)c1OCCN(CCOc1c(OC)cc(C(=N)N)cc1OC)S(=O)(=O)c1ccc(N)cc1`, the MIC is 320 µM (≈ 197 µg/mL) in the experiment with Bacillus subtilis; 6410 µM (≈ 3950 µg/mL) in the experiment on Pseudomonas aeruginosa [1]; 320 µM (≈ 197 µg/mL) in the experiment on Staphylococcus aureus [2]; more than 12800 µM with Aspergillus brasiliensis; 6410 µM (≈ 3950 µg/mL) in the experiment on Escherichia coli [3]; 6410 µM (≈ 3950 µg/mL) with Pseudomonas aeruginosa [4]. Moreover, the minimal inhibitory concentration (MIC) with Candida parapsilosis was more than 12800 µM; in the experiment with Micrococcus luteus [5], 38 µM (≈ 23.4 µg/mL); in the experiment with Bacillus cereus, 320 µM (≈ 197 µg/mL); in the experiment with Micrococcus luteus [6], 64 µM (≈ 39.5 µg/mL); in the experiment with Escherichia coli [7], 6410 µM (≈ 3950 µg/mL); in the experiment on Saccharomyces cerevisiae it was more than 12800 µM. Also, the minimum inhibitory concentration (MIC) in the experiment with Staphylococcus aureus [8] was 320 µM (≈ 197 µg/mL); with Candida albicans [9] it was more than 12800 µM; in the experiment on Candida albicans [10] it was more than 12800 µM.
